In brackets after ≈: the same amount, converted by molar mass. Where two headings read alike, the source gives them in different places. Marks after values point to notes of the source that are not given here. One block for each molecule: values may come before it.
Assays:
[1] = system: Staphylococcus aureus S1 Methicillin Resistant (MRSA); type: cell-based
Procedure: (§1) Staphylococcus aureus (S. aureus, ATCC 25923), Staphylococcus aureus S1 Methicillin Resistant (MRSA; this strain was kindly provided by Dr Gilles Prévost, University of Strasbourg), Escherichia coli (E. coli, ATCC 25922), and Pseudomonas aeruginosa (P. aeruginosa, ATCC 27853) strains were used to assess the antibacterial properties of the samples. Bacterial strain was cultured aerobically at 37 °C in Mueller–Hinton broth (MHB) medium (Merck, Germany), pH 7.4. One colony was transferred to 10 mL of MHB medium and incubated at 37 °C for 20 h. To obtain bacteria in the mid logarithmic phase of growth, the absorbance at 620 nm of overnight culture was adjusted to 0.001, corresponding to a final density of 5 × 10^5 CFU/mL. Ninety percent of this culture was incubated with 10% of the test compound at different concentrations. The positive control was composed of 90% bacterial suspension and 10% a mixture of antibiotics (tetracycline: 10 μg/mL and cefotaxime: 0.1 μg/mL in PBS). The negative control was composed of 90% of the bacterial suspension and 10% of PBS, corresponding to our 100% growth.
(§2) In order to test the influence of serum on the minimal inhibitory concentration (MIC), we added 10% decomplemented fetal bovine serum or 50% nondecomplemented fetal bovine serum in MHB medium. After 24 h of incubation at 37 °C with shaking, the optical density at 620 nm of each well was measured. The smallest concentration for which bacterial growth is 0% corresponds to the MIC of the tested compound.

E. coli ATCC 25922 = type: cell-based, Escherichia coli
Procedure: as §1, §2

P. aeruginosa ATCC 27853 = type: cell-based, Pseudomonas aeruginosa; conditions: for MIC, P. aeruginosa ATCC 27853: MHB medium pH 7.4, 24 h, 100 μL, 5 × 10^5 CFU/mL, OD 620 nm, lowest concentration with 0% growth, mean of 3 samples
Procedure: as §1, §2

S. aureus ATCC 25923 = type: cell-based, Staphylococcus aureus
Procedure: as §1, §2

C. albicans ATCC 18804 = assay: Antifungal MIC assay in SAB, C. albicans; type: cell-based, Candida albicans
Procedure: The Candida albicans (C. albicans, ATCC 18804) strain was used to assess the antifungal properties of the samples. Briefly, C. albicans was cultured aerobically at 30 °C in Sabouraud dextrose broth (SAB) medium (Becton Dickinson, Voisins le Bretonneux, France). One colony was then transferred to 10 mL of SAB medium and incubated at 30 °C for 20 h. The absorbance at 620 nm of overnight culture was adjusted to 0.001 and the tests were performed under the same conditions as those used for bacteria, with the exception of the temperature (30 °C instead of 37 °C) and the culture medium (SAB instead of MHB).

[2] = system: Aspergillus fumigatus 098; assay: Antifungal assay on spores, growth evaluated by microscopy; type: cell-based; conditions: 30 °C, 24 h without agitation, n = 3
Procedure: Aspergillus fumigatus strain (A. fumigatus, ASPFU098 from Dynamique des interactions hôte pathogène (DIHP) laboratory—EA 7292, Strasbourg) were tested to evaluate the antifungal properties of foldamers. Spores were resuspended at a concentration of 10^3 spores/mL in Sabouraud dextrose broth medium. Test samples were incubated with 90 μL of fungal spores. The suspension was incubated at 30 °C for 24 h without agitation. Fungal growth was monitored microscopically after 24 h. Media alone was used as negative control and corresponds to 100% fungal growth; voriconazole (50 μg/mL) was used as a positive control and corresponds to 100% growth inhibition.

MDA-MB-231 cells [3] = system: MDA-MB-231 cells
Procedure: (§3) We used the human breast cancer cell line MDA-MB-231. The cells were cultured using RPMI that was supplemented with 100 units/mL penicillin, 100 µg/mL streptomycin, and 10% of fetal calf serum (FCS from HyClone, Fischer Scientific, Illkirch, France). The MDA-MB-231 cells were plated in 48-well plates one day before the experiments were conducted. The cell confluence was around 60% the day of the assay.
The membrane permeabilization activity was measured as the leakage of lactate dehydrogenase (LDH) from the cells. […] Thereby, foldamers were incubated with MDA-MB-231 cells and after incubation at 37 °C for 1 h and 10 min, an aliquot (50 μL) of the supernatant of each well was used for the measurement of the LDH activity. […] The LDH release was measured using a commercially available kit (CytoTox-ONE membrane integrity assay from Promega). Untreated cells were used as control. The value of 100% LDH release was obtained by using cells treated with a lysis buffer. Absorbance was measured at 490 nm (and at 680 nm for background).

MDA-MB-231 cells [4] = conditions: 24 h
Procedure: as §3
The cell viability was determined on MDA-MB-231 cells by performing the MTS assay (3-(4,5-dimethylthiazol-2-yl)-5-(3-carboxymethoxyphenyl)-2-(4-sulfophenyl)-2H-tetrazolium salt) (CellTiter 96® AQueous One Solution Cell Proliferation Assay from Promega). This assay was performed using biological triplicates (same amount of foldamer were added to 3 different wells). Increasing amounts of foldamer diluted in 250 μL/well of RPMI 10% FCS were added to the cells. After 24 h of incubation, the culture medium was removed and replaced with 300 μL/well of RPMI 10% FCS containing the MTS reagent (50 μL/well). After incubation at 37 °C for 1 h and 10 min, 200 μL of medium were withdrawn and used to measure the absorbance at 490 nm (and 680 nm for background). Untreated cells were used as control (100% of cell viability).

S. aureus = conditions: 50% bovine serum; cited from earlier work
[5] = MHB medium pH 7.4, 24 h, 37 °C, 100 μL, 5 × 10^5 CFU/mL, OD 620 nm, lowest concentration with 0% growth, mean of 3 samples
[6] = Table S2, MIC of Table 1 in μM, MHB, 24 h, 37 °C

Molecule: CC(C)[C@H](N)CNC(=O)N[C@H](CNC(=O)N[C@H](CNC(=O)N[C@H](CNC(=O)N[C@@H](CCCNC(=N)N)CNC(=O)N[C@H](CNC(=O)N[C@@H](CCCNC(=N)N)CNC(=O)N[C@H](CCC(N)=O)C(C)C)Cc1c[nH]c2ccccc12)C(C)C)Cc1c[nH]c2ccccc12)Cc1c[nH]cn1 [OL-1]
MIC, MRSA [1, 5]: 50 µg/mL (≈ 36.6 µM)
MIC, MRSA ([1]; S1 Methicillin Resistant, 24 h): 36.56 μΜ
MIC, E. coli 25922 (E. coli ATCC 25922; ATCC 25922, 24 h): 9.14 μΜ
MIC, E. coli ATCC 25922 (E. coli ATCC 25922; [5]): 12.5 µg/mL (≈ 9.14 µM)
MIC, P. aeruginosa 27853 (P. aeruginosa ATCC 27853; ATCC 27853, 24 h): 9.14 μΜ
MIC, P. aeruginosa ATCC 27853 (P. aeruginosa ATCC 27853; 37 °C): 12.5 µg/mL (≈ 9.14 µM)
MIC, S. aureus 25923 (S. aureus ATCC 25923; ATCC 25923, 24 h): 9.14 μΜ
MIC, S. aureus ATCC 25923 (S. aureus ATCC 25923; [5]): 12.5 * μg/mL
MIC, C. albicans 18804 (C. albicans ATCC 18804; ATCC 18804, 24 h): 12.5 µg/mL (≈ 9.14 µM)

Molecule: CC(C)NC(=O)N[C@H](CNC(=O)N[C@H](CNC(=O)N[C@H](CNC(=O)N[C@H](CNC(=O)N[C@@H](CCCNC(=N)N)CNC(=O)N[C@H](CNC(=O)N[C@@H](CCCNC(=N)N)CNC(=O)N[C@H](CCC(N)=O)C(C)C)Cc1c[nH]c2ccccc12)C(C)C)Cc1c[nH]c2ccccc12)Cc1c[nH]cn1)C(C)C [OL-2]
MIC, MRSA [1, 5]: 12.5 µg/mL (≈ 8.6 µM)
MIC, MRSA ([1]; S1 Methicillin Resistant, 24 h): 8.6 μΜ
MIC, E. coli 25922 (E. coli ATCC 25922; ATCC 25922, 24 h): 4.3 μΜ
MIC, E. coli ATCC 25922 (E. coli ATCC 25922; [5]): 6.25 µg/mL (≈ 4.3 µM)
MIC, P. aeruginosa 27853 (P. aeruginosa ATCC 27853; ATCC 27853, 24 h): 17.2 μΜ
MIC, P. aeruginosa ATCC 27853 (P. aeruginosa ATCC 27853; 37 °C): 25 µg/mL (≈ 17.2 µM)
MIC, S. aureus 25923 (S. aureus ATCC 25923; ATCC 25923, 24 h): 4.3 μΜ
MIC, S. aureus ATCC 25923 (S. aureus ATCC 25923; [5]): 6.25 µg/mL (≈ 4.3 µM)
MIC, C. albicans 18804 (C. albicans ATCC 18804; ATCC 18804, 24 h): 12.5 µg/mL (≈ 8.6 µM)

Molecule: CC(C)NC(=O)N[C@H](CNC(=O)N[C@H](CNC(=O)N[C@H](CNC(=O)N[C@H](CNC(=O)N[C@H](CNC(=O)N[C@H](CNC(=O)N[C@@H](CCCNC(=N)N)CNC(=O)N[C@H](CCC(N)=O)C(C)C)Cc1c[nH]c2ccccc12)Cc1c[nH]cn1)C(C)C)Cc1c[nH]c2ccccc12)Cc1c[nH]cn1)C(C)C [OL-3]
MIC, Aspergillus fumigatus 098 ([2]; spores in Sabouraud dextrose broth): below 50 μg/mL
MIC, MRSA [1, 5]: 12.5 µg/mL (≈ 8.72 µM)
MIC towards MRSA in the presence of 10% serum versus without ([1]; MHB supplemented with 10% decomplemented fetal calf serum, 24 h, 37 °C, mean of three samples): remained unaffected
Change of MIC towards MRSA in the presence of 50% serum ([1]; MHB supplemented with 50% nondecomplemented fetal calf serum, 24 h, 37 °C, mean of three samples): two to four-fold
MIC, MRSA ([1]; S1 Methicillin Resistant, 24 h): 8.7 μΜ
LDH leakage / alteration of the membranes (MDA-MB-231 cells [3]): least cytotoxic foldamer towards mammalian cells
MIC, E. coli 25922 (E. coli ATCC 25922; ATCC 25922, 24 h): 8.7 μΜ
MIC, E. coli ATCC 25922 (E. coli ATCC 25922; [5]): 12.5 µg/mL (≈ 8.72 µM)
MIC, P. aeruginosa 27853 (P. aeruginosa ATCC 27853; ATCC 27853, 24 h): 34.8 μΜ
MIC, P. aeruginosa ATCC 27853 (P. aeruginosa ATCC 27853; 37 °C): 50 µg/mL (≈ 34.9 µM)
MIC, S. aureus 25923 (S. aureus ATCC 25923; ATCC 25923, 24 h): 8.7 μΜ
MIC, S. aureus ATCC 25923 (S. aureus ATCC 25923; [5]): 12.5 µg/mL (≈ 8.72 µM)
IC50, cell viability (MTS) (MDA-MB-231 cells [4]): about 50 μg/mL
MIC, C. albicans 18804 (C. albicans ATCC 18804; ATCC 18804, 24 h): 12.5 µg/mL (≈ 8.72 µM)

Molecule: CC(C)NC(=O)N[C@@H](CCCNC(=N)N)CNC(=O)N[C@H](CNC(=O)N[C@H](CNC(=O)N[C@H](CNC(=O)N[C@H](CNC(=O)N[C@H](CNC(=O)N[C@H](CNC(=O)N[C@@H](CCCNC(=N)N)CNC(=O)N[C@H](CCC(N)=O)C(C)C)Cc1c[nH]c2ccccc12)Cc1c[nH]cn1)C(C)C)Cc1c[nH]c2ccccc12)Cc1c[nH]cn1)C(C)C [OL-4]
MIC, MRSA [1, 5]: 6.25 µg/mL (≈ 3.86 µM)
MIC, MRSA [1, 6]: 3.86 μΜ
MIC, E. coli ATCC 25922 (E. coli ATCC 25922; [5]): 6.25 µg/mL (≈ 3.86 µM)
MIC, E. coli 25922 (E. coli ATCC 25922; [6]): 3.86 μΜ
MIC, P. aeruginosa ATCC 27853 (P. aeruginosa ATCC 27853; 37 °C): 50 µg/mL (≈ 30.9 µM)
MIC, P. aeruginosa 27853 (P. aeruginosa ATCC 27853; [6]): 30.88 μΜ
MIC, S. aureus ATCC 25923 (S. aureus ATCC 25923; [5]): 6.25 µg/mL (≈ 3.86 µM)
MIC, S. aureus 25923 (S. aureus ATCC 25923; [6]): 3.86 μΜ
MIC, C. albicans 18804 (C. albicans ATCC 18804; Sabouraud dextrose broth (SAB), 24 h, 30 °C, 100 μL, OD 620 nm, n = 3): 12.5 µg/mL (≈ 7.72 µM)

Molecule: CC(C)NC(=O)N[C@H](CNC(=O)N[C@@H](CCCNC(=N)N)CNC(=O)N[C@H](CNC(=O)N[C@H](CNC(=O)N[C@@H](CCCNC(=N)N)CNC(=O)N[C@H](CNC(=O)N[C@@H](CCCNC(=N)N)CNC(=O)N[C@H](CCC(N)=O)C(C)C)Cc1c[nH]c2ccccc12)C(C)C)Cc1c[nH]c2ccccc12)C(C)C [OL-5]
MIC, MRSA [1, 5]: 6.25 µg/mL (≈ 4.25 µM)
MIC, MRSA ([1]; S1 Methicillin Resistant, 24 h): 4.25 μΜ
MIC, E. coli 25922 (E. coli ATCC 25922; ATCC 25922, 24 h): 4.25 μΜ
MIC, E. coli ATCC 25922 (E. coli ATCC 25922; [5]): 6.25 µg/mL (≈ 4.25 µM)
MIC, P. aeruginosa 27853 (P. aeruginosa ATCC 27853; ATCC 27853, 24 h): 8.5 μΜ
MIC, P. aeruginosa ATCC 27853 (P. aeruginosa ATCC 27853; 37 °C): 12.5 µg/mL (≈ 8.49 µM)
MIC, S. aureus 25923 (S. aureus ATCC 25923; ATCC 25923, 24 h): 8.5 μΜ
MIC, S. aureus ATCC 25923 (S. aureus ATCC 25923; [5]): 12.5 µg/mL (≈ 8.49 µM)
MIC, C. albicans 18804 (C. albicans ATCC 18804; ATCC 18804, 24 h): 6.25 µg/mL (≈ 4.25 µM)

Molecule: Pexiganan
Loss of activity in the presence of serum (S. aureus): 32 fold

Now from value to molecule:

MIC, E. coli ATCC 25922 (E. coli ATCC 25922; ATCC 25922, 24 h, pH 7.4): ≥ 100 µg/mL
MIC, S. aureus ATCC 25923 (S. aureus ATCC 25923; ATCC 25923, 24 h, pH 7.4): ≥ 100 µg/mL
Molecule: CC(=O)N[C@@H](CCCCN)C(=O)N[C@@H](Cc1c[nH]cn1)C(=O)N[C@@H](CCCCN)C(=O)N[C@@H](Cc1c[nH]cn1)C(=O)N[C@@H](CCCCN)C(=O)N[C@@H](C)CNC(=O)N[C@H](CNC(=O)N[C@@H](C)CNC(=O)N[C@H](CNC(N)=O)Cc1c[nH]c2ccccc12)Cc1c[nH]c2ccccc12 [OL-6]

MIC, E. coli ATCC 25922 (E. coli ATCC 25922; ATCC 25922, 24 h, pH 7.4): ≥ 100 µg/mL
MIC, S. aureus ATCC 25923 (S. aureus ATCC 25923; ATCC 25923, 24 h, pH 7.4): ≥ 100 µg/mL
Molecule: CC(=O)N[C@@H](CCCNC(=N)N)C(=O)N[C@@H](Cc1c[nH]cn1)C(=O)N[C@@H](CCCNC(=N)N)C(=O)N[C@@H](Cc1c[nH]cn1)C(=O)N[C@@H](CCCNC(=N)N)C(=O)N[C@H](CNC(=O)N[C@H](CNC(=O)N[C@H](CNC(=O)N[C@H](CNC(N)=O)Cc1c[nH]c2ccccc12)C(C)C)Cc1c[nH]c2ccccc12)C(C)C [OL-7]

MIC ([2]; Aspergillus fumigatus, 098, spores in Sabouraud dextrose broth): 12.5 µg/mL (≈ 35.8 µM)
Molecule: C[C@@H](c1ncncc1F)[C@](O)(Cn1cncn1)c1ccc(F)cc1F [Voriconazole, reference compound]

Reference: paper PMC8911826, “Design of Oligourea-Based Foldamers with Antibacterial and Antifungal Activities” (Molecules, 2022)
